Measured values taken from patent US8377918B2 (ACC Therapeutics Inc, priority 2005, dated 2013).

Columns and labels:
[1] = system: tumors induced by A2780/CP70 cells; assay: Blood vessel numbers of A2780/CP70 tumors on CAM; type: in vivo, chicken embryo; details: 10 μM apigenin or 2.5 μM CDDP+10 μM apigenin, 10 days
Procedure: FIG. 4. […] The A2780/CP70 cells were seeded into 100 mm dish and grown to 90-100% confluence. […] In 10 days, the tumors were harvested and weighed. The blood vessel numbers of the tumor were counted under×100. At least five areas were determined. The data are mean±SD from two experiments (n=8). A, representative tumor morphology; B, tumor weight; C, relative numbers of blood vessels.

A549 cells = assay: MTT cell proliferation assay, A549 lung cancer cells; type: cell-based, human; details: A549, apigenin alone, 24 h
Procedure: (§1) FIG. 17. […] A, the prostate cancer cells PC-3 and DU145; B, colon cancer cells Colo-205 and HCT-116; C, lung cancer cells A549 and H460 cells were plated at 1×10^4 cells per well in a 96 well plate in 100 μl of media.

Colo-205 cells = assay: MTT cell proliferation assay, Colo-205 colon cancer cells; type: cell-based, human; details: Colo-205, apigenin alone, 24 h
Procedure: FIG. 17. […] A, the prostate cancer cells PC-3 and DU145; B, colon cancer cells Colo-205 and HCT-116; C, lung cancer cells A549 and H460 cells were plated at 1×10^4 cells per well in a 96 well plate in 100 μl of media. […] FIG. 20. […] A, the prostate cancer cells PC-3 and DU145; B, colon cancer cells Colo-205 and HCT-116; C, lung cancer cells A549 and H460 cells were plated at 1×10^4 cells per well in a 96 well plate. […] Cell proliferation was examined by MTT assay. […] FIG. 22. […] A, colon cancer cells Colo-205 and HCT-116; B, lung cancer cells A549 and H460 cells were plated at 1×10^4 cells per well in a 96 well plate the day before the treatment. […] Cell proliferation was examined by MTT assay. […] FIG. 24. […] The IC50 values for inhibiting cell proliferation were calculated from cell proliferation assay as described above.

A2780/CP70 cells = assay: MTT cell proliferation assay, A2780/CP70 ovarian cancer cells; type: cell-based, human; details: A2780/CP70, apigenin alone, 24 h
Procedure: (§2) FIG. 1. […] (A) A2780/CP70 cells and human fibroblast GM847 cells were seeded in 96-well plate at 4×10^3 cells per well and incubated overnight. […] The cells were incubated for 24 h. Cell proliferation was determined by MTT reduction. […] Cells were trypsinized, harvested, washed once with PBS buffer, and stained using the Annexin-V-Folus Kit as per the manufacture's instructions. […] After incubation, all cells were collected and total DNA was isolated. Eight (8) μg of DNA was resolved on 1.8% agarose gel. […] (D) Treatment of GM847 cells was the same as that of 5D. […] Cleavage of caspase-3 and PARP was detected by western-blot.
FIG. 3. […] A2780/CP70 cells were seeded in 96-well plates and incubated overnight. The old medium was discarded and fresh medium with cisplatin (CDDP) in the presence or absence of apigenin (Api) was added. In 24 h, the cell proliferation was determined by means of MTT reduction method.
FIG. 9. […] A, Cisplatin-resistant ovarian cancer cell line A2780/CP70, and B, prostate cancer cells PC-3 were seeded in 96-well plates at 1×10^4 cells/well and incubated overnight. […] In 24 h, the cell proliferation was assayed by using a MTT assay kit. *indicates significant difference compared to cisplatin alone (p<0.01).

[2] = system: HIF-1 expression in OVCAR-3 cells; assay: HIF-1 immunoblotting, OVCAR-3; type: cell-based, human
Text: (§3) FIG. 5. […] The cells treated with solvent alone were used as a control. HIF-1α and HIF-1β protein levels were detected by immunoblotting as described in Materials and Methods. GAPDH was used as an internal control to test the loading and transfer efficiency.

[3] = system: HIF-1 expression in A2780/CP70 cells; assay: HIF-1 immunoblotting, A2780/CP70; type: cell-based, human
Text: as §3

[4] = system: human fibroblast GM847 cells; assay: MTT proliferation, human fibroblast GM847 cells; type: cell-based; details: same experimental conditions as cancer cells, 24 h
Procedure: as §2

A2780/CP70 tumors = assay: Secondary tumor growth in chicken embryos; type: in vivo, chicken embryo; details: 7.5 μM apigenin, 9 days
Procedure: FIG. 2. […] Ovarian cancer cells A2780/CP70 were planted into 9-days old fertilized chicken embryos and incubated for 9 days to allow the tumor formation. The formed tumors were harvested and cut into pieces of 9-10 mg weight, and immediately implanted into another 9-day old fertilized chicken embryo and incubated for 9 days. […] In 9 days, the secondary tumor was cut and weighed.

DU145 cells = assay: MTT cell proliferation assay, DU145 prostate cancer cells; type: cell-based, human; details: 24 h
Procedure: FIG. 8. […] Prostate cancer cells PC-3 and DU145 were seeded in 96-well plates at 1×10^4 cells/well. […] The cell proliferation was assayed by culturing the cells for 24 h, then adding 10 μl of MTT reagent with incubation for 2 h. The reaction was stopped by adding 100 μl of solubilization solution. The relative cell proliferation was obtained by the reading at 590 nm which was recorded in a spectrophotometer, and normalized to the value of control.
as §1
FIG. 19. […] A, prostate cancer cells PC-3; and B, DU145 cells were plated at 1×10^4 cells per well in a 96 well plate in 100 μl of media. […] Cell proliferation was examined by MTT assay.
FIG. 21. […] A, the prostate cancer cells PC-3 and DU145; B and C, colon cancer cells Colo-205 and HCT-116 were plated at 1×10^4 cells per well in a 96 well plate in 100 μl of media a day before the treatment.
FIG. 23. […] Cell proliferation was examined by MTT assay.

H460 cells = assay: MTT cell proliferation assay, H460 lung cancer cells; type: cell-based, human; details: H460, apigenin alone, 24 h
Procedure: FIG. 17. […] A, the prostate cancer cells PC-3 and DU145; B, colon cancer cells Colo-205 and HCT-116; C, lung cancer cells A549 and H460 cells were plated at 1×10^4 cells per well in a 96 well plate in 100 μl of media. […] FIG. 18. […] A and B, the prostate cancer cells PC-3 and DU145; C, colon cancer cells Colo-205 and HCT-116; D, lung cancer cells A549 and H460 cells were plated at 1×10^4 cells per well in a 96 well plate in 100 μl of media. […] The cell proliferation was analyzed by MTT assay. […] FIG. 22. […] A, colon cancer cells Colo-205 and HCT-116; B, lung cancer cells A549 and H460 cells were plated at 1×10^4 cells per well in a 96 well plate the day before the treatment. […] Cell proliferation was examined by MTT assay. […] FIG. 25.

O=c1cc(-c2ccc(O)cc2)oc2cc(O)cc(O)c12 [apigenin, 4′,5,7,-trihydroxyflavone]
inhibition of blood vessel formation (angiogenesis) [1]: 35% | effect on cell proliferation (A549 cells): inhibited the proliferation | effect on cell proliferation (Colo-205 cells): inhibited the proliferation | effect on cell proliferation (A2780/CP70 cells): inhibited cell proliferation | effect on HIF-1 expression [2]: inhibited HIF-1 expression | effect on HIF-1 expression [3]: inhibited HIF-1 expression | effect on human normal fibroblast cells [4]: little effects | effect on tumor growth (secondary tumor weight) (A2780/CP70 tumors): inhibited tumor growth | effect on sensitivity to etoposide treatment (DU145 cells; DU145, 15 μM apigenin): increased the sensitivity | effect on cell proliferation (DU145 cells; DU145, apigenin alone): inhibited | effect on cell proliferation (H460 cells): inhibited the proliferation
